Measurements reported in PMC9797896 (Medicinal Chemistry Research, 2022).
Where “and” joins values, the source holds several entries; their conditions need not be identical. Equal values may be shown once. Read-outs that look alike come from different tables or passages of the source.

Tested on: SARS-CoV-2 (Omicron variant, B.1.1.529/BA.2 sublineage)
Assay: microbe, parasite or virus in culture
Assay type: cell-based
Conditions: for EC50 / EC90: Severe acute respiratory syndrome coronavirus 2, Vero C1008, 48 h; for EC90: read-out: 90% Reduction in Infectious Virus (EC90); for time to maximal effectiveness against the Omicron variant particles: after starting administration and treatment
[1] = read-out: 50% Reduction in Infectious Virus (EC50)
[2] = read-out: 50% Reduction in Viral RNA Copy (EC50)

| SMILES | 100% CPE Inhibitory Concentration (CPEIC100) | EC50 [1] [µM] | EC50 [2] [µM] | EC90 [µM] | time to maximal effectiveness against the Omicron variant particles [h] | 100% CPE Inhibitory Concentration (CPEIC100) (listed as forodesine) [µM] |
| --- | --- | --- | --- | --- | --- | --- |
| O=c1[nH]cnc2c([C@@H]3N[C@H](CO)[C@@H](O)[C@H]3O)c[nH]c12 [Forodesine, forodesine] | 1.69 ± 0.06 µM | ~0.7 | 0.73 ± 0.04 | 2.2 ± 0.06 | 4 to 10 | 1.69 |
| CC(C)Nc1nc2cc(Cl)c(Cl)cc2n1[C@H]1O[C@@H](CO)[C@H](O)[C@@H]1O [Maribavir, maribavir] | 7.97 ± 0.27 µM | 3.05 ± 0.13 | 3.2 ± 0.14 | 12.3 ± 0.33 | – | – |
| CC(C)C(=O)OC[C@H]1O[C@@H](n2ccc(NO)nc2=O)[C@H](O)[C@@H]1O [Molnupiravir, molnupiravir] | 6.28 µM and 6.28 ± 0.28 µM | 2.61 ± 0.1 | 2.73 ± 0.11 | 9.1 ± 0.31 | – | – |
| COc1nc(N)nc2c1ncn2[C@@H]1O[C@H](CO)[C@@H](O)[C@@H]1O [Nelarabine, nelarabine] | – | 1.68 ± 0.08 | 1.75 ± 0.08 | 6.46 ± 0.18 | – | – |
| CCC(CC)COC(=O)[C@H](C)N[P@](=O)(OC[C@H]1O[C@@](C#N)(c2ccc3c(N)ncnn23)[C@H](O)[C@@H]1O)Oc1ccccc1 [Remdesivir, remdesivir] | 5.99 µM and 5.99 ± 0.20 µM | 2.07 ± 0.08 | – | 8.01 ± 0.29 | – | – |
| CC(C)=CCNc1ncnc2c1ncn2[C@@H]1O[C@H](CO)[C@@H](O)[C@H]1O [Riboprine, N^6-(2-Isopentenyl)adenosine] | 1.21 µM and 1.21 ± 0.04 µM | ~0.45 | 0.48 ± 0.03 | 1.71 ± 0.05 | 4 to 10 | – |
| OC[C@H]1O[C@@H](n2cnc3c(N[C@@H]4CCOC4)ncnc32)[C@H](O)[C@@H]1O [Tecadenoson, tecadenoson] | 7.73 ± 0.23 µM | 2.9 ± 0.1 | 2.95 ± 0.11 | 11.9 ± 0.32 | – | – |
| Nc1ncnc2c1ncn2[C@@H]1O[C@H](CO)[C@@H](O)[C@@H]1O [Vidarabine, Arabinosyladenine] | 8.10 ± 0.25 µM | 3.2 ± 0.13 | 3.23 ± 0.13 | 12.6 ± 0.35 | – | – |
